Measured values as given in patent US8796302B2 (priority 2004, dated 2014).

How the values were obtained:
[1] = system: dopaminergic neurons in neuron-glia co-cultures; test: [3H]DA uptake in Aβ-treated neuron-glia cultures; format: cell-based, rat; details: micro- and femtomolar DM, 30 min pretreatment, Aβ 0.75 μM
Protocol: Neuron-glia co-cultures were prepared and treated with vehicle alone, Aβ 0.75 μM alone, or DM 30 min prior to treatment with Aβ0.75 μM similar to Example 1. Amyloid-β peptide (25-35 and 1-42) was obtained from American Peptide Co., Inc (Sunnyvale, Calif.). Neurotoxicity was assessed by DA uptake as in Example 1. Results are expressed as a percentage of the control cultures and are the mean±S.E.M. of three to eight individual experiments with triplicates in each experiment. ##, P<0.01 compared with the control culture; *, P<0.05 compared with Aβ-treated culture.

NO = NO production (nitrite, Griess reagent) after LPS; format: cell-based, rat; details: for LPS-stimulated NO production (nitrite): 24 after LPS 20 ng/ml
Protocol: Different pro-inflammatory factors that are released from microglia were also monitored. The production of NO was determined by measuring the accumulated levels of nitrite in the supernatant with the Griess reagent, and release of TNFα was measured with a rat TNFα enzyme-linked immunosorbent assay kit from R & D System (Minneapolis, Minn.).
The cultures were prepared as in Example 1 and were first treated with LPS 20 ng/ml or vehicle; 12 hours later the LPS was removed and the cultures were treated with 10^−5 M, 10^−10M, and 10^−14M DM. Twenty four hours later, nitrite oxide and PGE2 production were assessed as in Example 5. The results are expressed as a percentage of LPS treated culture and are the mean±S.E.M of four and three experiments with triplicates in each experiment. *, p<0.05 compared with the LPS-treated culture. ###, P<0.001 compared with the control culture.
Production of nitric oxide (NO) was determined in the mesencephalic neuron-glia cultures, following pretreatment and LPS stimulation as described above, by measuring the accumulated levels of nitrite in the supernatant with Griess reagent. Accumulation of nitrite, an indicator of LPS-stimulated production of NO, was determined 24 after LPS stimulation.

[2] = system: intracellular reactive oxygen species; test: Intracellular ROS (DCFH oxidation) after LPS; format: cell-based, rat
Protocol: The production of intracellular reactive oxygen species was measured by DCFH oxidation. The DCFH-DA (Molecular Probes, Eugene, Oreg.) reagent passively diffuses into cells in which it is hydrolyzed by intracellular esterase to liberate 2′-7′-dichlorofluoressein which, during reaction with oxidizing species, yields a highly fluorescent compound 2′-7′-dichlorofluorescein (DCF) that is trapped inside the cell. For each measurement, a fresh stock solution of CM-H2-DCFDA (5 mM) was prepared in dimethylsulfoxide. CM-H2-DCFDA, diluted to a final concentration of 1 μM in phenol red-free HBSS containing 2% FBS and 2% HS, was added to cultures and incubated for about 30 min at about 37° C. After washing two times with warm HBSS, vehicle or stimulators in HBSS were added to cultures. After incubation for about 30 min at about 37° C., fluorescence intensity was measured at 485 nm for excitation and 530 nm for emission using a SpectraMax Gemini XS fluorescence microplate reader (Molecular Devices).
The data are expressed as the percent of the control cultures and are the mean±SEM of three experiments performed in triplicate. *P<0.05, **P<0.01, compared to control.
Assay of intracellular ROS is performed as follows. 5-(and −6)-Chloromethyl-2′,7′-dichlorodihydrofluorescein diacetate (CM-H2-DCFDA) (Molecular Probes, Eugene, Oreg.), a chloromethyl derivative of H2-DCFDA, passively diffuses into cells in which it is hydrolyzed by intracellular esterases to liberate 2′-7′-dichlorofluorescein (DCF) which, during reaction with oxidizing species, yields a highly fluorescent compound that is trapped inside the cell. […] Cells were seeded at 1×10^5/well in 96-well plates for one day followed by treatment with 0.6 mM or 1.2 mM VPA for 24 h. The cultures were used for the assay of intracellular ROS.
After washing two times with warm Hank's balanced salt solution (HBSS), CM-H2-DCFDA, diluted to a final concentration of 1 μM in phenol red-free HBSS, was added to cultures and incubated for 30 min at 37° C. Then cultures were added with 0.6 or 1.2 mM VPA in HBSS again for 30 min and followed the treatment with 100 ng/ml LPS for 2 hours at 37° C., fluorescence intensity was measured at 485 nm for excitation and 530 nm for emission using a SpectraMax Gemini XS fluorescence microplate reader (Molecular Devices, Sunnyvale, Calif.).

[3] = system: dopaminergic neurons in PHOX^+/+ and PHOX^−/− mouse neuron-glia cultures; test: [3H]DA uptake in neuron-glia cultures of PHOX+/+ and PHOX−/− mice; format: cell-based; details: DM 10^−14 M, LPS 10 ng/ml
Protocol: To further study the role of ROS in DM-elicited neuroprotection, neuron-glia cultures were prepared from NADPH oxidase-deficient (PHOX^−/−) and wild-type (PHOX^+/+) mice.
Neurotoxicity was assessed by DA uptake as described in Example 1. TNFα production was measured by ELISA and iROS was determined by DCFDA as in Example 5. Results are expressed as a percentage of the control culture in FIG. 7A, pg/ml in FIG. 7B, and difference from control in FIG. 7C, respectively, and are the mean±S.E.M. of five individual experiments with triplicates in each experiment. *, P<0.05 compared with LPS culture.
The rat and mouse ventral mesencephalic neuron-glia cultures were prepared as in Example 1. […] DA neurotoxicity was measured by using the [^3H] DA uptake assay as in Example 1. The data are expressed as the percent of the control cultures and are the mean±SEM. The release of TNFα was measured with a commercially available enzyme-linked immunosorbent assay kit. *P<0.05, **P<0.01, compared to control. The amount of TNFα was measured as in Example 2.

CD-1 mouse Kupffer cells = test: Superoxide and intracellular ROS in LPS-stimulated Kupffer cells; format: cell-based; details: LPS 10 ng/ml
Protocol: Kupffer cell samples were collected by anesthetizing the CD-1 mice with pentobarbital anesthesia [60 mg/kg intraperitoneally (i.p.)]. The abdomen of the animals was shaved and opened, the portal vein was cannulated and perfused with Ca^2+- and Mg^2+-free Hanks' balanced salt solution (HBSS) at 37° C. for 5 min at a flow rate of 13 ml/min. Subsequently, the liver was perfused with HBSS containing 0.05% collagenase IV (Sigma Chemical, St. Louis, Mo.) at 37° C. for 5 min. After the liver was digested, it was excised and cut into small pieces in collagenase buffer. The suspension was filtered through nylon gauze mesh, and the filtrate was centrifuged at 450×g for 10 min at 4° C. Cell pellets were resuspended in buffer, parenchymal cells were removed by centrifugation at 50×g for 3 min, and the nonparenchymal cell fraction was washed twice with buffer. Cells were centrifuged on a density cushion of 50% of Percoll (Pharmacia, Upsala, Sweden) at 1,000×g for 15 min, and the Kupffer cell fraction was collected and washed again with buffer. The viability of the cells was determined by tryptan blue exclusion at >90%. The cells were seeded onto 24-well culture plates and cultured in RPMI 1640 (GIBCO Laboratories Life Technologies, Grand Island, N.Y.) supplemented with 10% fetal bovine serum and antibiotics (100 U/ml penicillin G and 100 μg/ml streptomycin sulfate) at 37° C. with 5% CO2. Non-adherent cells were removed after 2 hours by replacing media, and cells were cultured for 24 hours before the experiments.
The production of superoxide and intracellular ROS by the Kupffer cells were measured as in Example 5.

[4] = system: GalN/LPS-induced liver gene expression; test: Liver gene expression (real-time RT-PCR) after GalN/LPS; format: in vivo, mouse
Source text: Total RNA was extracted from liver tissues (n=4 to 5) by Trizol reagent (Sigma, St. Louis, Mo.) and purified with an RNeasy column (Qiagen, Valencia, Calif.). Expression of the selected genes was quantified using real-time RT-PCR analysis that began by reverse transcribing the samples with MuLV reverse transcriptase and oligo-dT primers.
The SYBR green DNA PCR kit (Applied Biosystems, Foster City, Calif.) was used for real-time PCR analysis. The relative differences in expression between groups were expressed using cycle time (Ct) values and the relative differences between groups were expressed as relative increases setting control as 100%. Assuming that the Ct value is reflective of the initial starting copy and that there is 100% efficacy, a difference of one cycle is equivalent to a two-fold difference in starting copy.

[5] = DM 10^−5 M and 10^−14 M pretreatment
[6] = ratio to control, 12 hr, DM 12.5 mg/kg sc x2

`COc1ccc2c(c1)[C@@]13CCCC[C@H]1[C@@H](C2)N(C)CC3` [DM, d-3-methoxy-N-methylmorphinan] was tested, and the “Aβ-induced neurotoxicity (DA uptake)” value [1] was “neuroprotective effect”, the “LPS-induced increase in the release of NO” value (NO; [5]) was “significantly decreased” and the “LPS-induced increase in the release of NO” value (NO; DM 10^−10 M pretreatment) was “no significant reduction”. The “NO production, post treatment” value (NO; femtomolar DM after removal of LPS (20 ng/ml, 12 h), 24 h) was “reduction of NO and PGE2 production”, the “LPS-induced increase in intracellular reactive oxygen species” value [2, 5] was “significantly decreased” and the “LPS-induced increase in intracellular reactive oxygen species” value ([2]; DM 10^−10 M pretreatment) was “no significant reduction”. The “LPS-induced reduction of [3H]-dopamine uptake” value ([3]; PHOX+/+ mice) was “significantly attenuated this decrease”, the “LPS-induced reduction of [3H]-dopamine uptake” value ([3]; PHOX−/− mice) was “failed to show any protective effect” and the extracellular superoxide production (CD-1 mouse Kupffer cells; DM 5 μM) was “attenuated”. For the same compound, the “intracellular superoxide production (iROS)” value (CD-1 mouse Kupffer cells; DM 5 μM) was “attenuated”, the extracellular superoxide production (CD-1 mouse Kupffer cells; DM 10 μM) was “significantly blunted” and the “intracellular superoxide production (iROS)” value (CD-1 mouse Kupffer cells; DM 10 μM) was “significantly blunted”. For the same compound, the “MIP-2 expression, LPS + DM” value ([4]; 12 hr after GalN/LPS, DM 12.5 mg/kg sc x2, controls 1.0, LPS/GalN alone 153.3 ± 6.4) was 39.0 ± 2.1 fold, the “GADD153 expression, LPS + DM” value ([4]; 12 hr, DM 12.5 mg/kg sc x2, controls 1.0, LPS/GalN alone 7.4 ± 0.3) was 2.7 ± 1.3 fold and the “ICAM-1 expression, LPS + DM” value ([4]; 12 hr, DM 12.5 mg/kg sc x2, controls 1.0, LPS/GalN alone 8.45 ± 1.3) was 5.05 ± 2.7 fold. The “mKC expression, LPS + DM” value ([4]; 12 hr, DM 12.5 mg/kg sc x2, controls 1.0, LPS/GalN alone 13.7 ± 2.9) was 5.8 ± 1.6 fold, the “GADD45 expression, LPS + DM” value ([4]; 12 hr, DM 12.5 mg/kg sc x2, controls 1.0, LPS/GalN alone 24.6 ± 12.4) was 5.3 ± 2.4 fold and the “IL-10 expression, LPS + DM” value ([4]; 12 hr, DM 12.5 mg/kg sc x2, controls 1.0, LPS/GalN alone 25.3 ± 2.9) was 15.0 ± 3.3 fold. The “c-jun/AP-1 expression, LPS + DM” value ([4]; 12 hr, DM 12.5 mg/kg sc x2, controls 1.0, LPS/GalN alone 28.0 ± 7.5) was 9.1 ± 0.8 fold, the “c-myc expression, LPS + DM” value ([4]; 12 hr, DM 12.5 mg/kg sc x2, controls 1.0, LPS/GalN alone 45.4 ± 3.6) was 18.4 ± 2.1 fold and the “Thrombospondin-1 expression, LPS + DM” value ([4]; 12 hr, DM 12.5 mg/kg sc x2, controls 1.0, LPS/GalN alone 94.2 ± 2.5) was 56.0 ± 1.57 fold. For the same compound, the “IL-6 expression, LPS + DM” value ([4]; 12 hr, DM 12.5 mg/kg sc x2, controls 1.0, LPS/GalN alone 153.4 ± 13.3) was 43.6 ± 6.3 fold, the “GADD45, LPS + DM/Cont” value [4, 6] was 5.3 fold and the “GADD153, LPS + DM/Cont” value [4, 6] was 2.7 fold. The “ICAM-1, LPS + DM/Cont” value [4, 6] was 5.05 fold, the “IL-6, LPS + DM/Cont” value [4, 6] was 43.6 fold and the “IL-10, LPS + DM/Cont” value [4, 6] was 15 fold. For the same compound, the “MIP-2, LPS + DM/Cont” value [4, 6] was 39.0 fold, the “Thrombospondin-1, LPS + DM/Cont” value [4, 6] was 56.0 fold and the “c-jun/AP-1, LPS + DM/Cont” value [4, 6] was 9.1 fold. For the same compound, the “c-myc, LPS + DM/Cont” value [4, 6] was 18.4 fold and the “mKC, LPS + DM/Cont” value [4, 6] was 5.8 fold.

In the case of `CCCC(CCC)C(=O)O` [VPA, Valproic acid], the “LPS-stimulated NO production (nitrite)” value (NO; VPA 0.4 mM pretreatment) is reported as 54 % of the control, the “LPS-stimulated NO production (nitrite)” value (NO; VPA 0.6 mM pretreatment) is reported as 78 % of the control and the “LPS-induced increase of iROS level” value ([2]; VPA 0.6 or 1.2 mM pretreatment, enriched microglia, LPS 100 ng/ml 2 h) is reported as “completely blocked”. The “basal iROS levels” value ([2]; VPA alone 0.6 mM, enriched microglia) was “reduced basal iROS levels”.
